In ChEMBL document CHEMBL4004838, “Design and synthesis of novel phenyl -1, 4-beta-carboline-hybrid molecules as potential anticancer agents” (Eur J Med Chem, 2017):
Calls of active or inactive are those of the source. The rule behind the calls is not given here.

Experiments:
Bos taurus = organism: Bos taurus; test: Induction of calf thymus DNA intercalation assessed as compound-DNA complex formation at 5 uM incubated for 1 hr by ethidium bromide staining based agarose gel electrophoresis relative to control
SNB-75 [1] = test: Growth inhibition of human SNB75 cells incubated for 48 hrs by sulforhodamine B assay; type: functional; conditions: SNB-75, 48 h
Malme-3M = test: Growth inhibition of human MALME-3M cells incubated for 48 hrs by sulforhodamine B assay; type: functional
M14 = test: Growth inhibition of human M14 cells incubated for 48 hrs by sulforhodamine B assay; type: functional; conditions: M14, 48 h
OVCAR-5 = test: Growth inhibition of human OVCAR5 cells incubated for 48 hrs by sulforhodamine B assay; type: functional; conditions: OVCAR-5, 48 h
HL-60(TB) [2] = test: Growth inhibition of human HL-60(TB) cells assessed as cell growth at 0.01 uM incubated for 48 hrs by sulforhodamine B assay relative to control; type: functional; conditions: HL-60, 48 h, read-out: Activity
HOP-62 = test: Growth inhibition of human HOP62 cells assessed as cell growth at 0.01 uM incubated for 48 hrs by sulforhodamine B assay relative to control; type: functional; conditions: HOP-62, 48 h, read-out: Activity
NCI-H322M = test: Growth inhibition of human NCI-H322M cells assessed as cell growth at 0.01 uM incubated for 48 hrs by sulforhodamine B assay relative to control; type: functional; conditions: read-out: Activity
KM12 = test: Growth inhibition of human KM12 cells assessed as cell growth at 0.01 uM incubated for 48 hrs by sulforhodamine B assay relative to control; type: functional; conditions: KM12, 48 h, read-out: Activity
SW-620 [3] = test: Growth inhibition of human SW620 cells assessed as cell growth at 0.01 uM incubated for 48 hrs by sulforhodamine B assay relative to control; type: functional; conditions: SW-620, 48 h, read-out: Activity
MDA-MB-435 = test: Growth inhibition of human MDA-MB-435 cells assessed as cell growth at 0.01 uM incubated for 48 hrs by sulforhodamine B assay relative to control; type: functional; conditions: MDA-MB-435, 48 h, read-out: Activity
SK-MEL-2 [4] = test: Growth inhibition of human SK-MEL-2 cells assessed as cell growth at 0.01 uM incubated for 48 hrs by sulforhodamine B assay relative to control; type: functional; conditions: SK-MEL-2, 48 h, read-out: Activity
A498 [5] = test: Growth inhibition of human A498 cells assessed as cell growth at 0.01 uM incubated for 48 hrs by sulforhodamine B assay relative to control; type: functional; conditions: A498, 48 h, read-out: Activity
ACHN = test: Growth inhibition of human ACHN cells assessed as cell growth at 0.01 uM incubated for 48 hrs by sulforhodamine B assay relative to control; type: functional; conditions: read-out: Activity
TK-10 = test: Growth inhibition of human TK10 cells assessed as cell growth at 0.01 uM incubated for 48 hrs by sulforhodamine B assay relative to control; type: functional; conditions: TK-10, 48 h, read-out: Activity
MCF7 = test: Growth inhibition of human MCF7 cells assessed as cell growth at 0.01 uM incubated for 48 hrs by sulforhodamine B assay relative to control; type: functional; conditions: MCF7, 48 h, read-out: Activity
HL-60(TB) [6] = test: Growth inhibition of human HL-60(TB) cells assessed as cell growth at 0.1 uM incubated for 48 hrs by sulforhodamine B assay relative to control; type: functional; conditions: HL-60, 48 h, read-out: Activity
A549 = test: Growth inhibition of human A549/ATCC cells assessed as cell growth at 0.1 uM incubated for 48 hrs by sulforhodamine B assay relative to control; type: functional; conditions: A549, 48 h, read-out: Activity
SW-620 [7] = test: Growth inhibition of human SW620 cells assessed as cell growth at 0.1 uM incubated for 48 hrs by sulforhodamine B assay relative to control; type: functional; conditions: SW-620, 48 h, read-out: Activity
A498 [8] = test: Growth inhibition of human A498 cells assessed as cell growth at 0.1 uM incubated for 48 hrs by sulforhodamine B assay relative to control; type: functional; conditions: A498, 48 h, read-out: Activity
MDA-MB-468 = test: Growth inhibition of human MDA-MB-468 cells assessed as cell growth at 0.1 uM incubated for 48 hrs by sulforhodamine B assay relative to control; type: functional; conditions: MDA-MB-468, 48 h, read-out: Activity
NCI-H522 [9] = test: Growth inhibition of human NCI-H522 cells assessed as cell growth at 1 uM incubated for 48 hrs by sulforhodamine B assay relative to control; type: functional; conditions: NCI-H522, 48 h, read-out: Activity
SF-268 = test: Growth inhibition of human SF268 cells assessed as cell growth at 1 uM incubated for 48 hrs by sulforhodamine B assay relative to control; type: functional; conditions: SF-268, 48 h, read-out: Activity
SNB-75 [10] = test: Growth inhibition of human SNB75 cells assessed as cell growth at 1 uM incubated for 48 hrs by sulforhodamine B assay relative to control; type: functional; conditions: SNB-75, 48 h, read-out: Activity
U-251 = test: Growth inhibition of human U251 cells assessed as cell growth at 1 uM incubated for 48 hrs by sulforhodamine B assay relative to control; type: functional; conditions: U-251, 48 h, read-out: Activity
A498 [11] = test: Growth inhibition of human A498 cells assessed as cell growth at 1 uM incubated for 48 hrs by sulforhodamine B assay relative to control; type: functional; conditions: A498, 48 h, read-out: Activity
RXF 393 [12] = test: Growth inhibition of human RXF393 cells assessed as cell growth at 1 uM incubated for 48 hrs by sulforhodamine B assay relative to control; type: functional; conditions: RXF 393, 48 h, read-out: Activity
SR = test: Growth inhibition of human SR cells assessed as cell growth at 100 uM incubated for 48 hrs by sulforhodamine B assay relative to control; type: functional; conditions: read-out: Activity
NCI-H522 [13] = test: Growth inhibition of human NCI-H522 cells assessed as cell growth at 100 uM incubated for 48 hrs by sulforhodamine B assay relative to control; type: functional; conditions: NCI-H522, 48 h, read-out: Activity
SK-MEL-2 [14] = test: Growth inhibition of human SK-MEL-2 cells assessed as cell growth at 100 uM incubated for 48 hrs by sulforhodamine B assay relative to control; type: functional; conditions: SK-MEL-2, 48 h, read-out: Activity
RXF 393 [15] = test: Growth inhibition of human RXF393 cells assessed as cell growth at 100 uM incubated for 48 hrs by sulforhodamine B assay relative to control; type: functional; conditions: RXF 393, 48 h, read-out: Activity
UO-31 = test: Growth inhibition of human UO31 cells assessed as cell growth at 100 uM incubated for 48 hrs by sulforhodamine B assay relative to control; type: functional; conditions: UO-31, 48 h, read-out: Activity
[16] = read-out: LC50 (the source's name)
[17] = read-out: pLC50 (the source's name) (converted)

In the case of `c1ccc2[nH]c(-c3ccc(-c4nccc5c4[nH]c4ccccc45)cc3)nc2c1`, the Activity (Bos taurus) is reported as “Active”, the GI50 (SNB-75 [1]; read-out: GI50) is reported as 1.57 µM and the CC50 (SNB-75 [1]; [16]) is reported as 1.19 µM. The TGI (SNB-75 [1]; read-out: TGI) was 4.08 µM, the GI50 (SNB-75 [1]; read-out: pGI50 (converted)) was 1.58 µM and the CC50 (SNB-75 [1]; [17]) was 12 µM. It also gave a TGI (SNB-75 [1]; read-out: pTGI (converted)) of 4.07 µM, a GI50 (Malme-3M; read-out: GI50) of 1.85 µM and a CC50 (Malme-3M; [16]) of 7.07 µM. For the same compound, the TGI (Malme-3M; read-out: TGI) was 3.61 µM, the GI50 (Malme-3M; read-out: pGI50 (converted)) was 1.86 µM and the CC50 (Malme-3M; [17]) was 7.08 µM. It also gave a TGI (Malme-3M; read-out: pTGI (converted)) of 3.63 µM, a GI50 (M14; read-out: GI50) of 1.79 µM and a CC50 (M14; [16]) of 7.12 µM. For the same compound, the TGI (M14; read-out: TGI) was 3.57 µM, the GI50 (M14; read-out: pGI50 (converted)) was 1.78 µM and the CC50 (M14; [17]) was 7.08 µM. The TGI (M14; read-out: pTGI (converted)) was 3.55 µM, the GI50 (OVCAR-5; read-out: GI50) was 2.43 µM and the CC50 (OVCAR-5; [16]) was 5 µM. For the same compound, the TGI (OVCAR-5; read-out: TGI) was 6.47 µM, the GI50 (OVCAR-5; read-out: pGI50 (converted)) was 2.45 µM and the CC50 (OVCAR-5; [17]) was 50.1 µM. For the same compound, the TGI (OVCAR-5; read-out: pTGI (converted)) was 6.46 µM, the growth at 0.01 µM (HL-60(TB) [2]) was 95% and the growth at 0.01 µM (HOP-62) was 86%. For the same compound, the growth at 0.01 µM (NCI-H322M) was 92%, the growth at 0.01 µM (KM12) was 95% and the growth at 0.01 µM (SW-620 [3]) was 103%. For the same compound, the growth at 0.01 µM (MDA-MB-435) was 93%, the growth at 0.01 µM (SK-MEL-2 [4]) was 95% and the growth at 0.01 µM (A498 [5]) was 96%. For the same compound, the growth at 0.01 µM (ACHN) was 99%, the growth at 0.01 µM (TK-10) was 96% and the growth at 0.01 µM (MCF7) was 91%. The growth at 0.1 µM (HL-60(TB) [6]) was 92%, the growth at 0.1 µM (A549) was 98% and the growth at 0.1 µM (SW-620 [7]) was 103%. The growth at 0.1 µM (A498 [8]) was 83%, the growth at 0.1 µM (MDA-MB-468) was 99% and the growth at 1 µM (NCI-H522 [9]) was 91%. It also gave a growth at 1 µM (SF-268) of 93%, a growth at 1 µM (SNB-75 [10]) of 74% and a growth at 1 µM (U-251) of 98%. For the same compound, the growth at 1 µM (A498 [11]) was 92%, the growth at 1 µM (RXF 393 [12]) was 104% and the growth at 100 µM (SR) was 34%. It also gave a growth at 100 µM (NCI-H522 [13]) of 46%, a growth at 100 µM (SK-MEL-2 [14]) of 64% and a growth at 100 µM (RXF 393 [15]) of 68%. The growth at 100 µM (UO-31) was 82%.
